From patent US7964191B2, “Compositions and methods for the treatment of ophthalmic disease” (Allergan, Inc., priority 2006, dated 2011)

Key:
[1] = tested on: exudative age related macular degeneration; assay: Treatment of a patient with exudative age related macular degeneration; assay type: in vivo, human
Description: A patient suffering from exudative age related macular degeneration in the right eye is given a subretinal injection of a biodegradable implant containing 1 μg total of equimolar amounts of oligonucleotide pair 4 (SEQ ID NO: 36 and SEQ ID NO: 37) in a volume of 100 μl. The eye is monitored weekly for 16 weeks.
A patient is diagnosed with exudative age-related macular degeneration.
The patient is given an subconjunctival injection of a solution containing 10 mg of 1,1′-[1,4,phenylene-bis(methylene)]-bis-1,4,8,11-tetraazacyclotetradecane (AMD3100), see Bridger et al., US2004/0209921, incorporated by reference herein) in each eye once every two weeks for 6 months. The patient is monitored bimonthly and visual acuity tested.

CXCR4 mRNA = assay: CXCR4 RNA expression in ARPE-19 cells by whole human genome array hybridization; assay type: cell-based; details: for expression of intact intracellular CXCR4 RNA: cells uninduced with t-BH, compared to cells untreated with siRNA or given control siRNA, FIG. 3
Description: To isolate RNA from cells, 1 ml Qiazol® (a phenol/guanidinium isothiocyanate-based RNAse inhibitory lysis buffer sold by Qiagen, Inc.) was added to the ARPE-19 cells and the lysates then scraped into 2 ml tubes. 200 μl of chloroform per ml of Qiazol® was then added, the tubes mixed and centrifuged at 12,000×g for 15 minutes at 4° C. The aqueous phase was removed and applied to an RNeasy® mini column (Qiagen), washed and the column eluted with water. Five micrograms of the eluate were used for subsequent RT-PCR reactions. RT-PCR reactions were carried out using the Stratascript® First Strand Synthesis System (Stratagene). The RNA was denatured at 65° C. for 5 minutes, cooled at RT for 10 minutes then incubated at 42° C. for 60 minutes with reverse transcriptase.
A whole human genome DNA oligonucleotide array (Agilent Technnologies, G4112A array) was used to hybridize against RNA samples prepared from ARPE-19 cells treated with t-BH. This 44K slide format contains a collection of 60-mer oligonucleotides with sequences representing over 41 K human genes and transcripts.
RNA labeling was performed using the Low RNA Input Fluorescent Linear Amplification kit (LIK®) from Agilent Technologies (#5184-3523) following the manufacturer's recommendations. Briefly, 200 ng of total RNA from the ARPE-19 cells isolated as described in Example 2 were reverse transcribed in a 20 μL volume using with 1 μL Moloney Murine Leukemia Virus reverse transcriptase (MMLV-RT) and 1.2 μL of T7 promoter primer in 1× First Strand Buffer at 40° C. for 2 hours. From the double-stranded DNA preparation, transcription and direct labeling were prepared in 80 μL at 40° C. for 2 hours using 0.8 μL of T7 RNA polymerase, 0.6 μL inorganic pyrrophosphatase, 2.4 μL of each Cy-dye-CTP at 10 mM (PerkinElmer/NEN Life Sciences Cyanine-3-CTP #NEL580 and Cyanine-5-CTP #NEL581) in 4% PEG solution and 1× Transcription buffer. Cyanine dyes are highly sensitive fluorescent dyes.
Amplified and labeled cRNA was purified on Rneasy® mini columns (Qiagen, Inc.) according to manufacturer's protocol. cRNA was quantified by absorbance at 260 nm, 550 nm and 650 nm. Once labeling is complete, both Cy3 and Cy5 RNA samples are combined and hybridized to the microarray using the Agilent In Situ Hybridization kit (#5184-3568) following Agilent's recommendations.
Briefly 750 ng of cyanine 3-labeled linearly amplified cRNA and 750 ng of cyanine 5-labeled linearly amplified cRNA are combined to 1× control targets, 0.5× fragmentation buffer. This 2× target solution is denaturated at 60° C. for 30 minutes and 1× hybridization buffer in a 500 μL final volume is added to terminate the fragmentation reaction.
The target solution is then dispensed onto the 44K microarray. Incubation time was 17 hours at 60° C. in a hybridization oven with rotation at 4 rpm (Agilent Technologies #G2545A). Washes were performed for 5 minutes in 6×SSPE, 0.005% N-lauroyl sarcosine at room temperature, then for 5 minutes in 0.06×SSPE, 0.005% N-lauroyl sarcosine at room temperature, and finally for 30 seconds in Agilent Stabilization and Drying Solution®. The dried slides were scanned using a microarray scanner.
Total RNA was isolated from the cells (uninduced with t-BH) and the amount of CXCR4 RNA determined by gene array hybridization. The amount of CXCR4 in the naïve cells are standardized as “100%”.

ARPE-19 cells = assay: Oxidative stress/cell viability (WST) assay in ARPE-19 cells exposed to t-BH; assay type: cell-based
Description: ARPE 19 cells (American Type Tissue Collection (ATTC) Number CRL2302) were plated at a cell density of 6×10^4 cells per 10 cm tissue culture dish, in Delbecco's Modified Eagle's Medium (DMEM) F12 containing 10% fetal bovine serum (FBS) and 1% antibiotic/antimycotic solution (10,000 units of penicillin G (sodium salt), 10,000 μg/ml of streptomycin sulfate, and 25 μg/ml of amphotericin B in 0.85% saline) incubated at 37° C. overnight.
These oligonucleotides or control oligonucleotides (Stealth RNAi negative control Med GC (Invitrogen, Inc.)) were added in 1.5 ml of OptiMem® media (Gibco BRL) to a final concentration of 25 nM. In a separate equal volume of OptiMem® media, 15 μl of lipofectamine reagent (Lipofectamine® 2000, Invitrogen, Inc.) was similarly added to equal volume of OptiMem® media and incubated at room temperature for 5 minutes.
Both solutions were then mixed together and further incubated for 20 minutes at room temperature. The cells were washed once with OptiMem® media, the total volume of the mixture was brought up to 10 ml with OptiMem® media (Gibco BRL) and then added to the cells. Cells were permitted to incubate overnight at 37° C. 24 hours following transfection, the transfection mixture was removed and 10 ml of fresh DMEM F12 media added to the cells. […]
Cell viability was measured using the WST assay (Chemicon International, Inc.) according to the manufacturer's instructions. […] Thus, the formazan dye produced by viable cells can be quantified by a multiwell spectrophotometer (microplate reader) by measuring the absorbance of the dye solution at 440 nm.
In this case, 10 μl of WST-1 reagent was added to each well after 24 hours. The optimum assay development time was determined to be 1.5 hours. Plates were then read in a Spectramax M2 Platereader® at 450 nm. […]

[2] = Example 8, subconjunctival 10 mg each eye every two weeks for 6 months

c1cc(CN2CCCNCCNCCCNCC2)ccc1CN1CCCNCCNCCCNCC1 [AMD3100, 1,1′-[1,4,phenylene-bis(methylene)]-bis-1,4,8,11-tetraazacyclotetradecane]
fluorescein angiography: leakage of blood into retinal tissues ([1]; Example 8, end of six-month treatment): no detectable leakage of blood into retinal tissues
visibly apparent extent of retinal degeneration ([1]; Example 8, end of six-month treatment versus beginning of study): no increase in the visibly apparent extent of retinal degeneration
increase in visual acuity, left eye [1, 2]: one
increase in visual acuity, right eye [1, 2]: two

CC(C)(C)OO [t-BH, tertiary-butylhydroperoxide]
expression of CXCR4 RNA over baseline (CXCR4 mRNA; ARPE-19 cells, immediately after six hours' incubation with t-BH): 30 fold
increase in expression of CXCR4 RNA over baseline (CXCR4 mRNA; ARPE-19 cells, immediately after three hours' exposure to t-BH, untreated cells as baseline): 20 fold
reduction in CXCR4 expression after recovery (CXCR4 mRNA; t-BH for three hours, then further three hours in t-BH-free medium): almost no reduction in CXCR4 expression
decrease in CXCR4 RNA after recovery (CXCR4 mRNA; t-BH for three hours, then further twenty four hours in t-BH-free medium, versus levels immediately following exposure): approximately 35%
cells surviving for at least 24 hours (ARPE-19 cells; ARPE-19 cells exposed to t-BH for 3 hours, then non t-BH-containing media): approximately 70%
cell death (ARPE-19 cells; ARPE-19 cells exposed to t-BH for 6 hours): cell death by 24 hours

Pair 1: anti-CXCR4 double-stranded siRNA, SEQ ID NO: 10 and SEQ ID NO: 11 (chain 1 AACAGUGGAAGAAAGCUAGGGGCUC; chain 2 GAGGCCCUAGCUUUCUUCCACUGUU; listed as RNA, chemistry not given here)
expression of intact intracellular CXCR4 RNA (CXCR4 mRNA): reduce the expression of intact intracellular CXCR4 RNA
inhibition of cell death induced by oxidative stress (WST cell viability) (ARPE-19 cells; ARPE-19 cells, 300 uM t-BH for 6 hours, siRNA at 10 nM or 25 nM, FIG. 2): inhibits the cell death induced by oxidative stress (exposure to 300 uM t-BH) in a dose-dependent fashion

Pair 2: anti-CXCR4 siRNA, SEQ ID NO: 12 and SEQ ID NO: 13 (chain 1 AACAGUGGAAGAAAGCUAGGGCCUC; chain 2 GAGGCCCUAGCUUUCUUCCACUGUU; listed as RNA, chemistry not given here)
expression of intact intracellular CXCR4 RNA (CXCR4 mRNA): reduce the expression of intact intracellular CXCR4 RNA

Pair 3: anti-CXCR4 siRNA, SEQ ID NO: 14 and SEQ ID NO: 15 (chain 1 CUUGGAGUGUGACAGCUUGGAGAUG; chain 2 CAUCUCCAAGCUGUCACACUCCAAG; listed as RNA, chemistry not given here)
expression of intact intracellular CXCR4 RNA (CXCR4 mRNA): reduce the expression of intact intracellular CXCR4 RNA

Pair 4: anti CXCR4 siRNA, SEQ ID NO: 36 and SEQ ID NO: 37 (chain 1 CCCACCAUCUACUCCAUCAUCUUCU; chain 2 AGAAGAUGAUGGAGUAGAUGGUGGG; listed as RNA, chemistry not given here)
extent of macular degeneration ([1]; Example 6, end of the 16 week period): no increase in the extent of macular degeneration is observed
improvement in visual acuity ([1]; Example 6, right eye, subretinal biodegradable implant, 1 μg total, by week 3, maintained for 16 weeks): two
